Experimental data reported in patent publication US20080275093A1, “Diuretic Compounds Comprising Heterocyclic Nitric Oxide Donor Groups, Compositions and Methods of Use” (NitroMed, Inc., priority 2004, published 2008).

| melting point | SMILES |
| --- | --- |
| 182 to 183 °C | Cc1c(COC(=O)c2cc(S(N)(=O)=O)c(Cl)cc2NCc2ccco2)no[n+]1[O-] [Example 1, Benzoic acid, 5-(aminosulfonyl)-4-chloro-2-[(2-furanylmethyl)amino]-, (4-methyl-5-oxido-1,2,5-oxadiazol-3-yl)methyl ester] |
| 112 to 115 °C | Cc1c(COC(=O)COC(=O)c2cc(S(N)(=O)=O)c(Cl)cc2NCc2ccco2)no[n+]1[O-] [Example 2, Benzoic acid, 5-(aminosulfonyl)-4-chloro-2-[(2-furanylmethyl)amino]-, 2-[(4-methyl-5-oxido-1,2,5-oxadiazol-3-yl)methoxy]-2-oxoethyl ester] |
| 169 to 172 °C | Cc1c(COC(=O)c2cc(S(N)(=O)=O)c(Cl)cc2N)no[n+]1[O-] [Example 3, Benzoic acid, 2-amino-5-(aminosulfonyl)-4-chloro-, (4-methyl-5-oxido-1,2,5-oxadiazol-3-yl)methyl ester] |
